# Measured values reported in PubChem BioAssay AID2202554 (NIEHS Division of Translational Toxicology (DTT)).
# Inconclusive results are not listed. The source made the active and inactive calls. How the calls were made is not given here.
# Tested on: S. typhimurium/E. coli reverse mutation, colony counts
# Test: Bacterial reverse mutation test (aka Ames test) summary data
# In short: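 Revertant colony counts on plates, compared with untreated controls, after about two days of growth. Exposure with or without liver S9 (rat/hamster/mouse), dose range per strain, 20-min 37° C preincubation or direct plate incorporation. Strains: his⁻ Salmonella, trp⁻ E. coli WP2 uvrA pKM101.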
row,Compound,outcome
1,CCCCC(CC)COC(=O)c1ccccc1C(=O)OCC(CC)CCCC (configuration not stated),inactive; negative
2,BrCC(Br)C1CCC(Br)C(Br)C1 (configuration not stated),inactive; negative
3,CCCCCCCC(=O)Cl,active; positive
4,Cc1ccc(C)o1,inactive; negative
5,CN(C)CCCN1c2ccccc2Sc2ccc(Cl)cc21,inactive; negative
6,Nc1cc([N+](=O)[O-])ccc1O,active; positive
7,O=C(O)C=Cc1ccc(C=CC(=O)O)cc1,inactive; negative
8,Cc1cccc(OP(=O)(Oc2cccc(C)c2)Oc2cccc(C)c2)c1,inactive; negative
9,c1ccc(Nc2ccccc2)cc1,inactive; negative
10,Cc1cccc(O)c1C,inactive; negative
11,O=C1NC(=O)C(O)(O)C(=O)N1,inactive; negative
12,CNC=O,inactive; negative
13,CN(C(=O)CN(CCO)CC(=O)N(C)C(C)(C)Cc1ccccc1)C(C)(C)Cc1ccccc1,inactive; negative
14,C=C(C)C#N,inactive; negative
15,C=C(Cl)C(=O)OC,active; positive
16,Cc1ccc(N=Nc2c(O)ccc3ccccc23)c([N+](=O)[O-])c1,active; positive
17,O=C(O)c1ccccc1[N+](=O)[O-],active; positive
18,CCCCCCCCCCCCCCCCCCN,inactive; negative
19,C=CBr,active; positive
20,COC(=O)CCCCC(=O)OC,inactive; negative
21,Oc1c(Cl)cc(Cl)c(Cl)c1Cc1c(O)c(Cl)cc(Cl)c1Cl,inactive; negative
22,CCN(C=O)CC,inactive; negative
23,C[C@]12C=CC(=O)C=C1CC[C@@H]1[C@@H]2C(=O)C[C@@]2(C)[C@H]1CC[C@]2(O)C(=O)CO,active; positive

row,Compound,outcome
1,Cc1c(O)c(Br)c(Br)c(Br)c1Br,inactive; negative
2,O[C@H]([C@H](O)[C@@H](O)CBr)[C@H](O)CBr,active; positive
3,Nc1ccc(S(=O)(=O)Nc2ccccn2)cc1,inactive; negative
4,C=CC(=O)OCC(CC)(COC(=O)C=C)COC(=O)C=C,inactive; negative
5,Oc1ccc([C@H]2COc3cc(O)ccc3C2)cc1,inactive; negative
6,O=c1ccc(O)n[nH]1,active; weakly positive
7,O=C(Cl)c1ccc([N+](=O)[O-])cc1,active; positive
8,C1CCC2CCCCC2C1 (configuration not stated),inactive; negative
9,CCOS(C)(=O)=O,active; positive
10,CCOc1ccc(NC(N)=O)cc1,inactive; negative
11,O=[N+]([O-])c1cc([N+](=O)[O-])c2ccc(S(=O)(=O)O)cc2c1O,active; positive
12,CN(C)C(=S)N(C)C,inactive; negative
13,CN(C)CCN(Cc1ccsc1)c1ccccn1,inactive; negative
14,CCCN(CCC)C(=O)CN,active; positive
15,CN(C)c1cccc(O)c1,active; positive
16,COCCOC(=O)c1ccccc1C(=O)OCCOC,active; positive
17,CN(C)CCCCl,active; positive
18,Cc1c(N(C)C)c(=O)n(-c2ccccc2)n1C,active; weakly positive
19,O.O.O.O.O.O.O.O=S(=O)([O-])[O-].[Co+2],active; weakly positive
20,CCOc1ccc2nc(N)sc2c1,active; positive
21,ClC=CCCl,active; positive
22,CCOP(=S)(OCC)Oc1ccc([N+](=O)[O-])cc1,active; weakly positive
23,CCC(C)O (configuration not stated),inactive; negative

row,Compound,outcome
1,O=[N+]([O-])c1ccc(Cl)cc1,active; positive
2,CC[C@]12CCCN3CCc4c(n(c5ccccc45)[C@@](O)(C(=O)OC)C1)[C@@H]32,inactive; negative
3,ClC(Cl)(Cl)C1CO1 (configuration not stated),active; positive
4,CC1=C(/C=C/C(C)=C/C=C/C(C)=C/C=O)C(C)(C)CCC1,active; positive
5,CCOC(=O)C1=C[C@]2(CC)CCCN3CCc4c(n1c1ccccc41)[C@@H]32,inactive; negative
6,Clc1ccccc1Cl,inactive; negative
7,OCC(Cl)CCl (configuration not stated),active; positive
8,Clc1cccc(Cl)c1Cl,inactive; negative
9,Oc1ccccc1O,inactive; negative
10,Brc1ccccc1,inactive; negative
11,Cc1ccc(Nc2ccc(O)c3c2C(=O)c2ccccc2C3=O)cc1,inactive; negative
12,CCNc1nc(Cl)nc(NC(C)C)n1,inactive; negative
13,CC(Cl)(Cl)Cl,inactive; negative
14,CCCC(C)=O,inactive; negative
15,CC1CO1 (configuration not stated),active; positive
16,CC(=O)C=Cc1ccccc1,active; positive
17,CN(C)C(=O)Cl,active; positive
18,O=[N+]([O-])c1ccc(Nc2ccccc2O)c([N+](=O)[O-])c1,active; positive
19,c1ccc(COCc2ccccc2)cc1,inactive; negative
20,ClC(Cl)(Cl)CC1CO1 (configuration not stated),active; positive
21,NC(=O)c1ccccc1,inactive; negative
22,CC/C=C\C/C=C\C/C=C\CCCCCCCC(=O)OCC,active; weakly positive
23,CC(=O)NBr,inactive; negative

row,Compound,outcome
1,S=C1NCCN1,active; weakly positive
2,COc1ccc(N)c(OC)c1,active; positive
3,ClC(Cl)C(Cl)Cl,inactive; negative
4,CCCCC(CC)COC(=O)c1ccccc1C(=O)O (configuration not stated),inactive; negative
5,CC(=O)Nc1ccc(C)cc1,active; weakly positive
6,CC(C)(OOC(C)(C)c1ccccc1)c1ccccc1,inactive; negative
7,CN(C)CCOC(C)(c1ccccc1)c1ccccn1 (configuration not stated),inactive; negative
8,S=C([S-])NCCNC(=S)[S-].[Zn+2],inactive; negative
9,CCCCC,inactive; negative
10,CC(C)(c1ccc(OCC2CO2)cc1)c1ccc(OCC2CO2)cc1 (configuration not stated),active; positive
11,CCCC(O)C(CC)CO (configuration not stated),inactive; negative
12,O=C1O[C@H]([C@H](O)CO)C(O)=C1O,active; weakly positive
13,Cc1cccc(C(=O)O)c1[N+](=O)[O-],active; positive
14,NC(=O)N=NC(N)=O,active; positive
15,CC(C)CNCC(C)C,inactive; negative
16,C=CCO,inactive; negative
17,N#CCCCl,active; positive
18,Cc1cccc(N)c1,inactive; negative
19,C=CC,active; positive
20,NCCCCCCN,inactive; negative
21,ClC/C=C/CCl,active; positive
22,COc1ccc(C)cc1N,active; positive
23,C=C(C)C1CC=C(C)C(O)C1 (configuration not stated),inactive; negative

row,Compound,outcome
1,Cc1ccnc2c1NC(=O)c1cccnc1N2C1CC1,inactive; negative
2,COc1ccc(C(=O)/C(Br)=C\C(=O)O)cc1,active; positive
3,CC1CCCC1,inactive; negative
4,CC1CCC(CO)CC1 (configuration not stated),inactive; negative
5,C=CCOC(=O)c1ccccc1C(=O)OCC=C,inactive; negative
6,Nc1ccc(O)c(C(=O)O)c1,inactive; negative
7,O=[N+]([O-])c1ccccc1CCl,active; positive
8,CC(COc1ccccc1)N(CCCl)Cc1ccccc1 (configuration not stated),active; positive
9,COc1ccc(Cc2nccc3cc(OC)c(OC)cc23)cc1OC,inactive; negative
10,Fc1ccccc1,active; positive
11,C=CC(=O)OCCBr,active; positive
12,CN(C)c1ccc(N=NS(=O)(=O)O)cc1,active; positive
13,[Co],active; positive
14,Cc1ccc(N)cc1Cl,active; weakly positive
15,N#Cc1c(Cl)c(Cl)c(Cl)c(C#N)c1Cl,inactive; negative
16,C,inactive; negative
17,N#CC(Cl)Cl,active; positive
18,CCCCCC,inactive; negative
19,CNC(=O)c1ccccc1,inactive; negative
20,O=C(OCC1CO1)C1CCCCC1C(=O)OCC1CO1 (configuration not stated),active; positive
21,Oc1c(Cl)c(Cl)cc(Cl)c1Cl,inactive; negative
22,O=C1C=CCCC1,inactive; negative
23,CCc1nc(N)nc(N)c1-c1ccc(Cl)cc1,inactive; negative

row,Compound,outcome
1,CCN(CC)c1ccc(N)cc1,active; positive
2,O=C(Cl)C(Cl)Cl,active; positive
3,O=C(O)c1cccc(Cl)c1,inactive; negative
4,C1COCCN1,inactive; negative
5,COC(=O)CCC(=O)OC,inactive; negative
6,CCCCCCCCCCCCOCC1CO1 (configuration not stated),inactive; negative
7,C=CCBr,active; positive
8,CC(=O)c1ccc(Cl)c(Cl)c1Cl,active; positive
9,O=CC(=O)c1ccccc1,active; positive
10,Cc1ccc(O)c(N)c1,active; positive
11,CCCCCCCCCCCC[S][Sn]([CH2]CCC)([CH2]CCC)[S]CCCCCCCCCCCC,inactive; negative
12,CNc1ccccc1,inactive; negative
13,Oc1c(Br)c(Br)c(Br)c(Br)c1Br,inactive; negative
14,O=c1ccc2ccccc2o1,active; positive
15,Cl[C@@H]1C2(Cl)C3C4[C@@H]5O[C@@H]5[C@H]5C3[C@@](Cl)(C2(Cl)Cl)[C@]1(Cl)[C@@H]45 (some centres not stated),active; positive
16,O=CCCCC=O,active; positive
17,Cc1cccc(N)c1C,active; positive
18,O=C1CN(N=Cc2ccc([N+](=O)[O-])o2)C(=O)N1,active; positive
19,O=C1c2c(O)ccc([N+](=O)[O-])c2C(=O)c2c([N+](=O)[O-])ccc(O)c21,active; positive
20,CC(C)NCC(O)c1ccc(O)c(O)c1 (configuration not stated),active; weakly positive
21,O=C(O)c1ccc(Cl)c(Cl)c1,inactive; negative
22,Cc1nc2ccc(Cl)cc2[nH]1,active; positive
